# Test results as given in ChEMBL document CHEMBL3507680, “University of Dundee, Gates Library screen for HepG2 cell viability”.
# Experiment: Human HepG2 cell viability assay in 384 well format
# Type: toxicity, cell-based
# Set-up: dose 125 nL, time 70.5 hour; concentration not given beside the values
# Conditions: HepG2 cells, read-out: Inhibition
row,Structure (SMILES),cytotoxicity at 70.5 h [%]
1,COc1ccc(CN2C[C@@H]3OCCN(CC4CCCO4)[C@@H]3C2)cc1 (stereo partly drawn),-19.1
2,CSC1(CNC(=O)NC(C)c2ccc(F)cc2)CCOCC1 (stereo not drawn),6.41
3,CO[C@H]1CCN(c2nnc(C)s2)C[C@@H]1Cc1ccccc1,-4.37
4,O=C(Cc1ccccc1C(F)(F)F)N1CCC2(CC1)[C@H](O)C[C@@H]2O,-6.88
5,Cc1ccc(C2(CN3CCN(Cc4cnc(C)n4C)CC3)CC2)cc1,32.9
6,Cc1nn(C)c(C)c1-c1cnc(C2CCCN(C)C2)cn1 (stereo not drawn),-7.8
7,COc1ccc(F)cc1C(=O)N(C)[C@@H]1CC[C@@H](O)[C@@H]1O,-9.84
8,COc1cc(Cl)ccc1CNC(=O)N(C)C(C)CS(C)(=O)=O (stereo not drawn),-7.57
9,COCC(=O)NCc1cc(=O)n2c(n1)CN(Cc1ccccc1)CCC2,2.31
10,Cn1nc(C2CCCN(Cc3ccc(F)c(F)c3)C2)c2nccnc21 (stereo not drawn),27.1
11,Cn1ccc(C(=O)NCc2ccccc2Cn2ccnc2)cc1=O,-8.24
12,CCOC(=O)Cn1nnnc1-c1ccccc1,-0.715
13,O=S(=O)(c1ccc(N2CCCCC2)c2nonc12)N1CCCCC1,-11.2
14,O=C(NC1CCCCC1)NC1CCCc2c1cnn2CCO (stereo not drawn),-5.64
15,CC1CCN(C(=O)CSCc2nc(C3CC3)no2)CC1,-2.56
16,CCN1CCC(CNC(=O)NCc2cc(-c3ccc(C)cc3)no2)C1 (stereo not drawn),-1.11
17,CC(NC(=O)N1CCC(CC(N)=O)CC1)c1csc2ccccc12 (stereo not drawn),-10.8
18,CN(C)C(CNC(=O)c1nc(N2CCOCC2)ncc1Cl)c1ccco1 (stereo not drawn),-19.3
19,CN(Cc1ccccn1)C1CC2(CCN(Cc3cccnc3)CC2)C1,5.08
20,COc1c(C2SCC(=O)Nc3[nH]ncc32)cc2c(c1OC)OCO2 (stereo not drawn),-13.6
21,COc1ccc(Cl)cc1CC(=O)N1CCN(CCO)CC1,12.5
22,O=C(c1cccs1)N1CC[C@H](O)[C@@H]1Cc1ccccc1,29.4
23,CN(C)c1nccc(-c2cnc(N(C)C)[nH]c2=O)n1,-5.37

row,Structure (SMILES),cytotoxicity at 70.5 h [%]
1,CS(=O)(=O)N1CCN(C(=O)CN2CCCc3c(F)cc(F)cc32)CC1,-3.95
2,Cc1ccc(C(=O)Nc2c(C(=O)N(C)C)nn(C)c2C)cc1,-4.31
3,Cn1ncc2c1C(COCC1CC1)CN(Cc1ccncc1)C2 (stereo not drawn),-8.73
4,CCCS(=O)(=O)N1C[C@@H](Oc2ncccc2F)[C@H]2OCCC[C@H]21,-10.6
5,Cc1ccc(C(=O)O)cc1CNC(=O)CN1CC[C@](C)(O)C(C)(C)C1,-6.88
6,Cc1nc(CN2CCN(CCCc3nc4ccccc4o3)CC2)no1,-0.419
7,CCc1cnc(C)nc1NCCNc1nc(C)cc(=O)[nH]1,0.367
8,CN(Cc1ccccc1CN1CCCC1)C(=O)c1c[nH]c(=O)[nH]1,-10.8
9,CCN1CCN(C[C@H]2CC[C@@H](Cc3ccc4c(c3)OCO4)O2)CC1,-5.47
10,CNC(=O)COc1ccccc1CNCc1c(C)noc1C,-3.67
11,CSc1cccc(NC(=O)Nc2c(O)oc3ccccc3c2=O)c1,-11.5
12,CC(NC(=O)C1CCN(C(=O)C2CC2)CC1)c1nncn1C(C)C (stereo not drawn),-4.92
13,O=C1O[C@@H]2CN(Cc3ccccc3F)C[C@@H]2N1CCCN1CCOCC1,8.16
14,O=C1CCCC2=C1C(c1cccc(F)c1F)Nc1nonc1N2 (stereo not drawn),1.2
15,CC(C)NC(=O)Nc1ccc(CS(=O)(=O)C(C)(C)C)cc1,-12.3
16,CCOCC(=O)N1C[C@H]2CC[C@@H]1CN(C(=O)c1ccncc1)C2,-1.67
17,Cc1noc(C2CCCN(C(=O)c3ccc(F)cc3F)C2)n1 (stereo not drawn),-8.76
18,O=C1CC(c2ccccc2)C2(CCN(Cc3ccccn3)CC2)N1 (stereo not drawn),-7.79
19,COC(=O)CCC(=O)NCc1cccnc1N1CCc2ccccc2C1,3.31
20,Cc1cnn(CCNc2cnc3ccccc3n2)c1,-1.2
21,CSc1ccc(CNC(=O)NCC(O)c2cccc(F)c2)cc1 (stereo not drawn),-7.86
22,O=C1CC(c2ccccc2)C2(CCN(C(=O)c3cnccn3)CC2)N1 (stereo not drawn),-8.06
23,CN(C)C(=O)c1cnn2c1OCCC2,-2.65

row,Structure (SMILES),cytotoxicity at 70.5 h [%]
1,COC(C)c1cccc(NC(=O)N(CCC#N)Cc2ccccn2)c1 (stereo not drawn),-6.49
2,O=C1C(NS(=O)(=O)c2ccc(F)cc2)CCN1Cc1ccccc1 (stereo not drawn),-13.4
3,Cc1ccc(F)c(N2CCCC(Nc3nccn4cnnc34)C2=O)c1 (stereo not drawn),-11.1
4,Oc1nnc(-c2ccccc2)c2sc(N3CCCCC3)nc12,0.482
5,Cc1cc2nc(C(C)C)cc(NC(C)c3nncn3C)n2n1 (stereo not drawn),-17.3
6,CCn1cc(CN2CCCn3nc(CNS(C)(=O)=O)cc3C2)c(C)n1,13.3
7,COCCN1CCN(Cc2c(C3CCNCC3)[nH]c3ncccc23)CC1,-2.48
8,Cc1ccc(CN2CC[C@@]3(O)CCN(S(=O)(=O)N(C)C)C[C@H]3C2)cc1C,-16
9,CCC/C=C/c1ccc(CN2CCN(C)CC2)cn1,26
10,CN(C)c1ccc2c(c1)CN(C(=O)c1c[nH]cn1)C2c1cnco1 (stereo not drawn),29.3
11,Cc1cccc(-c2nccnc2C2CCCN(C)C2)c1 (stereo not drawn),-2.49
12,Cc1ccc(C(=O)Nc2ccccc2F)n1C,-11.5
13,O=C(Cn1cccn1)NCC1CCN(Cc2cc3ccccc3[nH]2)C1 (stereo not drawn),-14.4
14,COc1cnc(C2(O)CCN(C(=O)c3ccccn3)CC2)c(OC)n1,-13.1
15,O=C(CC1CCC2(CC1)CCN(Cc1ccncc1)CC2)N1CCCC1,6.54
16,Cc1ccn(-c2ccccc2NCc2scnc2C)n1,-1.69
17,O=C(CC1COCCN1)N1CCCN(C2Cc3ccccc3C2)CC1 (stereo not drawn),-3.92
18,Cc1cc(C)nc(CN(C)C(=O)c2cccc(CCC(C)(C)O)c2)c1,-4.1
19,CN1CC(=O)N(c2ccsc2)CC12CCN(Cc1cnn(C)c1)C2 (stereo not drawn),-0.306
20,Cc1cnn(C2CCCN(C(=O)CCc3nccs3)C2)c1 (stereo not drawn),17.1
21,COCCC1(CNC(=O)NCC2CCCN(C)C2)CCCC1 (stereo not drawn),-1.2
22,O=c1c2ccccc2nc2n1CCN(Cc1cccs1)CC2,-16.1
23,O=C(O)c1ccccc1-c1c(-c2ccccc2)ncn1C[C@H]1CCCN1,-3.04

row,Structure (SMILES),cytotoxicity at 70.5 h [%]
1,CC(C)Nc1nc2c(s1)C(=O)CN(C(=O)NCc1ccccc1)C2,1.44
2,Cc1nc(CNC(C)c2cccc(N3CCCC3=O)c2)cs1 (stereo not drawn),-7.67
3,N#Cc1cc(NC(=O)C2CC=CC2)ccc1N1CCC(O)CC1,-0.67
4,COc1cc(C)nc(N2CCN(C(=O)c3ccc[nH]3)CC2)n1,-1.4
5,CC(C)c1nn(C)c(N(C)C)c1CNCc1ccccc1CN(C)C,-0.417
6,CCc1nccn1C1CCCN(C(=O)c2csc(COC)n2)C1 (stereo not drawn),-17.8
7,CC(C(=O)N1CCN(C(=O)c2ccc(F)cc2)CC1)n1ccnc1 (stereo not drawn),-4.23
8,Cc1cc(C2CCCN(C(=O)c3ccc(Cl)o3)C2)n[nH]1 (stereo not drawn),-8.12
9,O=C(Nc1cnn(CCN2CCOCC2)c1)c1ccccc1O,0.705
10,CN(C)c1cc(CNC(=O)c2ccc(Br)cc2F)ccn1,-4.97
11,CS(=O)(=O)NC1CCN(C(=O)NCc2cccnc2)CC1,2.6
12,FC(F)(F)C1CN(Cc2cccc(OCc3ccccn3)c2)CCO1 (stereo not drawn),8.84
13,NC(=O)C1CCN(CCCNC(=O)Nc2nncs2)CC1,-14.5
14,Cc1cc(C[C@@H]2COC[C@H]2NCc2ccc(C)c(C)c2)on1,-7.12
15,Cc1nc(-c2ccccc2F)sc1C(=O)N1CCC(=O)CC1,-8.75
16,Cn1cc(C(=O)N2CCCN(C3Cc4ccccc4C3)CC2)cn1,-13.8
17,Cc1cc(C)nc(N2CCCC(C(=O)Nc3n[nH]c(C(C)C)n3)C2)n1 (stereo not drawn),-7.23
18,CCn1nnnc1-c1cccc(NC(=O)COC2CCCC2)c1,6.8
19,CC1(C)CN=C(N2CCN(CCCN3CCOCC3)CC2)S1,-8.84
20,COc1c(C2CCCN2CC(=O)N(C)c2nccs2)c(C)nn1C (stereo not drawn),0.589
21,O=C(NCCn1cnc(C2CCCC2)cc1=O)NCc1cccs1,-7.11
22,Cc1cn(CC(=O)N(C)Cc2cccc3ncccc23)c(=O)[nH]c1=O,6.82
23,CC1CC2(CCN(C(=O)c3csnn3)CC2)c2ccccc21 (stereo not drawn),0.655

row,Structure (SMILES),cytotoxicity at 70.5 h [%]
1,CS(=O)(=O)N1CCCC(C(=O)Nc2cnn(Cc3ccc(F)cc3)c2)C1 (stereo not drawn),0.36
2,NC(=O)c1ccc(NC(=O)Cn2cc(-c3ccccc3)ncc2=O)cc1,-17.2
3,CNc1ncccc1CN1CCN2CCN(C)CC2C1 (stereo not drawn),-7.61
4,Cc1nc(CN2CCC(c3nc4cc(Cl)ccc4o3)CC2)oc1C,-19.4
5,Cc1cccc(CN2CCC(c3nnc(-c4scnc4C)o3)CC2)c1,0.33
6,CC(=O)Cn1cc(C#N)c(=O)c2cc(Br)ccc21,-13.6
7,Cc1[nH]nc(CCC(=O)N2CCc3ncnc(NCCO)c3CC2)c1C,-12.5
8,O=C(c1cc(C2CC2)nc2onc(-c3ccccc3)c12)N1CCOCC1,18.5
9,COc1cccc(OC2CN(C(=O)c3c(C)noc3C)C2)c1,-9.88
10,Cc1cnn(C2CN(CCOc3ccc(C#N)cc3)C2)c1,-5.99
11,Cc1nn(C)c2c(N3CCN(C(=O)C4CCCCC4)CC3)ncnc12,14.6
12,CC(NC(=O)NCC(C)(C)O)c1ccc(-c2ccncc2)cc1 (stereo not drawn),-1.45
13,CNC(=O)NC(=O)CN1CCN(CC(F)(F)F)CC1(C)C,-4.26
14,Cc1cc(OC(F)F)c(C(=O)N2CCC(N(C)C)CC2)s1,31.3
15,CS(=O)(=O)N1C[C@H]2N(c3ncccn3)CCC[C@@]2(C(=O)NCC2CC2)C1,-7.17
16,O=c1n(CCNCc2cccc3ccccc23)nc2ccccn12,-12.6
17,Cn1cc(C2=NOC(C(=O)NC3(c4ccccc4F)CCCC3)C2)cn1 (stereo not drawn),12.6
18,CCc1nsc(N2CCN(CC(=O)Nc3c(C)n[nH]c3C)CC2)n1,2.39
19,Cc1ccc(OCCNC(=O)C2CCOCC2)c(C)c1,35.7
20,CC(C)COCC(NC(=O)c1cc[nH]n1)c1ccco1 (stereo not drawn),4.11
21,OCCN(Cc1ccncc1)CC1(c2ccc(Cl)cc2)CCCC1,1.74
